One series deals with T1, recombinant human HDAC1 (Homo sapiens, UniProt Q13547).
T1 construct: purchased BPS Biosciences (San Diego, CA, USA)
Nature of the series: HDAC1 in vitro fluorescence-based inhibition assay (ZMAL substrate). Format: biochemical. The following applies: for IC50: recombinant human HDAC1, ZMAL 10.5 µM, 90 min 37 °C, read-out: IC50 (µM) ± SE HDAC1. The text has this: (§1) In order to investigate a potential subtype selectivity among different HDAC classes, we first tested them against the recombinant histone deacetylases HDAC1 (class I) and HDAC6 (class llb). […] To further address this issue, we also tested the respective compounds against the class l histone deacetylase HDAC8 (also see Table 1).
(§2) Recombinant human HDAC1 and 6 were purchased from BPS Biosciences (San Diego, CA, USA), and recombinant human HDAC8 was produced as described before. Inhibition tests of human HDAC1 and 6 were conducted using carboxybenzyl acetyllysine aminomethylcoumarin (ZMAL) as a substrate. […] For testing of HDAC8, the commercial Fluor de Lys drug discovery kit (BML-KI178) (Enzo Life Sciences, Lausen, Switzerland) was used according to the manufacturer’s instruction. Briefly, the test compound, Fluor de Lys-HDAC8 substrate (50 μM), and enzyme were incubated for 90 min at 37 °C with subsequent addition of 50 μL of Developer II (BML-KI176) (Enzo Life Sciences, Lausen, Switzerland) and further incubation for 45 min at 30 °C. In both assays, trichostatin A (2 μM) was used to stop the reaction. Fluorescence in both cases was measured in a plate reader (BMG Polarstar, BMG Labtech, Ortenberg, Germany) with excitation at λ = 390 nm and emission at λ = 460 nm.

In series [1] the test system is acetylation of histone H3 and tubulin in HL60 cells. Nature of the series: Western blot of acetylation levels of histone H3 and tubulin in HL60 cells. Format: cell-based, human. The following applies: 4 h. The procedure: An inhibition of deacetylation in this experiment is expected to lead to hyperacetylation of the respective proteins. Besides histone H3, acetylated tubulin was chosen as a target protein. As tubulin is only accepted as a target by HDAC 6 [21], this allows us to explore subtype selectivity in a cellular setting (see Figure 4).
HL60 cells were treated with the inhibitors in the given concentrations. Cells treated with dimethyl sulfoxide as a vehicle were used as controls. After an incubation time of 4 h, cells were transferred into 50-mL Falcon tubes and centrifuged (300× g, 5 min). The supernatant was removed, and the cells were washed with PBS, before they were transferred to 1.7-mL reaction tubes. The cells were lysated with Bio-Rad loading buffer, and the cell suspension was heated to 95 °C for 5 min. The proteins then were separated using a 15% SDS-polyacrylamide gel electrophoresis and transferred to a polyvinylidene fluoride (PVDF) membrane (Roti-PVDF, Carl Roth, Karlsruhe, Germany). Acetylation levels were detected using an anti-acetyl histone H3 antibody (Millipore, Billerica, MA, USA) and an anti-acetyl-α-tubulin antibody (Sigma Aldrich, St. Louis, MO, USA). An antibody directed against GAPDH (Sigma Aldrich) was used as a loading control.
(Immunoblotting shows a protein as a band on a membrane.)

In another series the test system is HL60 cells. Nature of the series: Cell proliferation assay (CellTiter 96 AQueous) in HL60 cells. The following applies: Homo sapiens, HL-60, 72 h, read-out: GI50 (µM) ± SE HL60.
The next series deals with T2, recombinant human HDAC6 (Homo sapiens, UniProt Q9UBN7).
T2 construct: purchased BPS Biosciences (San Diego, CA, USA)
T2 sequence (Q9UBN7 1-1215): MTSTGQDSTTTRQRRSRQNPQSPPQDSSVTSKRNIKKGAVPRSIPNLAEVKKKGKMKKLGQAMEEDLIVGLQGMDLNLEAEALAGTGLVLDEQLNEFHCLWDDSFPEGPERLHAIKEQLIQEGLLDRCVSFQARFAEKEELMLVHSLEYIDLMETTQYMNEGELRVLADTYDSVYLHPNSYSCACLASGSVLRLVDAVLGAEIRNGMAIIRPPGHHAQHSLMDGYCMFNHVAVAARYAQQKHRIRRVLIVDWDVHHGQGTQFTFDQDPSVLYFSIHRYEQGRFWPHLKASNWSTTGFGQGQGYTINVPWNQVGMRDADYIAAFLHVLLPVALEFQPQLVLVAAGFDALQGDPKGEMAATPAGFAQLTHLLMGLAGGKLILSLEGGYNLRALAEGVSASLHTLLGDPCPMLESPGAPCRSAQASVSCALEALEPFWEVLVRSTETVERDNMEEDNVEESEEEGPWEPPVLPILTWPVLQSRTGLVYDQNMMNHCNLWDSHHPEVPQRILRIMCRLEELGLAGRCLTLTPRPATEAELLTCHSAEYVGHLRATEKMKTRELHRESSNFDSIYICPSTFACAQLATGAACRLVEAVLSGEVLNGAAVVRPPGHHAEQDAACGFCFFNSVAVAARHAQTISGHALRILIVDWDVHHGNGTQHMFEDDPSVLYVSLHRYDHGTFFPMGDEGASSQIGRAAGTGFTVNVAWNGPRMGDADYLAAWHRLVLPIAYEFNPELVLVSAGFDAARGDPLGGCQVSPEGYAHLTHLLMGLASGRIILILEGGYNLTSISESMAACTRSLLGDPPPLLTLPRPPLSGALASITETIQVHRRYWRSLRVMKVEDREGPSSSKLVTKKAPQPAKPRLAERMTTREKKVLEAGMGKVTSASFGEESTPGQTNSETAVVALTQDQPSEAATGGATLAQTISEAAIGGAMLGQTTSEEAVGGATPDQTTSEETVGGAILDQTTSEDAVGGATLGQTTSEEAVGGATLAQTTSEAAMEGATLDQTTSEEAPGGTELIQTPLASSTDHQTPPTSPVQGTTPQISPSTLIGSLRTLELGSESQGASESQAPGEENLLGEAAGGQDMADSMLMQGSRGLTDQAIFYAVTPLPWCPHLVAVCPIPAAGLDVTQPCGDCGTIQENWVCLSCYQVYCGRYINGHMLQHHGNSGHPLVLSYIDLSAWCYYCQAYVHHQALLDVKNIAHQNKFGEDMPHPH
Nature of the series: HDAC6 in vitro fluorescence-based inhibition assay (ZMAL substrate). Format: biochemical. Conditions: recombinant human HDAC6, ZMAL 10.5 µM, 90 min 37 °C; read-out: IC50 (µM) ± SE HDAC6.
Source text: as §1, §2

The test system of series [2] is HDAC activity in HL60 cells. Nature of the series: Cellular HDAC inhibition assay (MAL substrate) in HL60 cells. The following applies: Homo sapiens, HL-60, read-out: IC50 (µM) ± SE cellular HDAC inhibition HL60.
Procedure: Therefore, we decided to adapt this assay for a cellular setting allowing us to verify the previous results by assessing HDAC inhibition in the human leukemia cell lines HL60 and U937 (see the right side of Table 2).
After 2 h of incubation, 50 µL substrate solution were added, containing tert-butyloxycarbonyl acetyl lysine aminomethylcoumarin (MAL) as a substrate (300 µM final assay concentration) and IGEPAL CA-630 (final concentration 0.05%). After 2 more hours of incubation at 37 °C and 5% CO2, 50 µL stop solution consisting of 0.5 µL TSA (100 µM) and 5 µL trypsin solution (10 mg/mL) in 44.5 µL cell buffer were added. This mixture was incubated for a further 20 min at 37 °C. Fluorescence was measured in a plate reader (BMG Polarstar) with excitation at λ = 390 nm and emission at λ = 460 nm.
The nature of series [3]: Stability analysis under in vitro assay conditions, HPLC quantification of released hydroxamic acid. Conditions: in vitro assay conditions without substrate, HDAC1 present, compound 2.4 mM, 90 min 37 °C. Format: physicochemical. The procedure:
In order to address the question if the newly-synthesized carbamates are hydrolyzed during the assay procedure or if they really serve as HDAC inhibitors themselves, stability stress tests were performed. For this purpose, the compounds were subjected to the standard in vitro assay conditions, but without adding a substrate as, no enzyme conversion should be observed in these experiments. After 90 min of incubation at 37 °C, the release of SAHA of the different samples was detected and quantified via HPLC. This led to the finding that a release of SAHA could be detected for all samples (see Table 1). […] This means that the question if the carbamate scaffold represents a new warhead for HDAC inhibition or if the degradation to SAHA is solely responsible for the observed inhibitory effects cannot be resolved completely.
To test the stability of Compound 9 under assay conditions, we also performed stability analysis with HPLC quantification. This experiment led to the finding that 8.7% of the carbamate 9 is degraded under release of bufexamac during incubation time. This fraction of released bufexamac may contribute to in vitro and cellular HDAC inhibition, but the observed selectivity profile of the carbamate in the in vitro assays clearly implies an intrinsic HDAC activity of carbamates.
For stability tests, the carbamates were subjected to the described in vitro assay conditions (see above) without adding the substrate ZMAL and without the second incubation step with trypsin. Compounds were applied in a final concentration of 2.4 mM, and recombinant HDAC1 was used as the enzyme. After 90 min of incubation at 37 °C, the release of SAHA was detected via HPLC on an Agilent 1200 series device. The employed analytical column was a Kinetex 5u XB-C18, 100 Å, 250 × 4.6 mm (Phenomenex, Torrance, CA, USA) with the ReproSil 100 C18 5-µm precolumn (Jasco, Oklahoma City, OK, USA). The following conditions were applied: Eluent A: H2O containing 0.05% TFA, Eluent B: acetonitrile containing 0.05% TFA, linear gradient conditions (0–4 min, A = 90%, B = 10%; 4–29 min, linear increase to 100% of B; 29–31 min, B = 100%; 31.5–40 min, A = 10%, B = 90%); injection volume: 30 µL, flow rate: 1 mL/min; detection wavelength: λ = 254 nm. For evaluation, the ChemStation software from Agilent was used. To quantify the released amount of SAHA and bufexamac, calibration curves were plotted by incubating DMSO stocks of these compounds under in vitro assay conditions with final compound concentrations ranging from 1 µM–200 µM. HPLC analysis with the conditions described above led to the following equations: y = 13.935x − 27.918 for SAHA and y = 0.6099x + 1.1301 for bufexamac.

The next series relates to U937 cells. Nature of the series: Cell proliferation assay (CellTiter 96 AQueous) in U937 cells. Conditions: Homo sapiens, U-937, 72 h, read-out: GI50 (µM) ± SE U937.

“And” between values parts separate entries of the source, which are not always exact repeats. Equal entries are not always repeated. Structures can show the parent of a compound that is named as a salt.

T1 sequence (Q13547 whole entry): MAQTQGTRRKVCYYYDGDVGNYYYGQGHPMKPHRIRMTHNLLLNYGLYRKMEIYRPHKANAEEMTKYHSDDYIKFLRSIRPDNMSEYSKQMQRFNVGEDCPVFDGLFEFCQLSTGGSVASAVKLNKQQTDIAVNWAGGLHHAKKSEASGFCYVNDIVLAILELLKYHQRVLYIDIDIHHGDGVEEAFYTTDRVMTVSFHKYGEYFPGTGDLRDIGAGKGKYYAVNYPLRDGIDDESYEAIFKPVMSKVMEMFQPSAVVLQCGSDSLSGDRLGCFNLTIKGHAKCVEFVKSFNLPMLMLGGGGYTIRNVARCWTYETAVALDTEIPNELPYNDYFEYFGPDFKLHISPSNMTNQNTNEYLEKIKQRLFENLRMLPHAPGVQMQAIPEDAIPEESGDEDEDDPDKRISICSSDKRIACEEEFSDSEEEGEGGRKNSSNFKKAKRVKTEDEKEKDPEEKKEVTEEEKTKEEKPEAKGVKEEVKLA
Procedure for U937 cells: To further investigate the inhibition properties of the carbamates, we tested their antiproliferative activity on human promyelocytic leukemia cells (HL60) and on human histiocytic lymphoma cells (U937).
HL60 or U937 cells were seeded in 96-well tissue culture plates at a density of 5 × 10^4 cells per well. Cells were immediately incubated with inhibitors. As these cells already differentiate with 1% DMSO content, inhibitors were prepared as 200× stock solutions in DMSO. In all cases, inhibitors were compared to DMSO vehicle only, and three replicates per concentration were used. Growth inhibition was determined using the CellTiter 96® AQueous Non-Radioactive Cell Proliferation Assay according to the manufacturer’s instructions. Briefly, 5 × 10^4 of HL60 or U937 cells per well were treated with DMSO stocks of the respective inhibitors or with DMSO in 100 µL cell culture medium and incubated for 72 h at 37 °C and 5% CO2 in transparent 96-well microtiter plates (PAA). Subsequently, 20 µL of the detection reagent (containing a tetrazolium salt) was added to each well and incubated for 4 more hours under the same conditions. After this time, absorption was measured at a wavelength of 490 nm (BMG Polarstar, BMG Labtech, Ortenberg, Germany).

With `CCCCOc1ccc(CC(=O)NO)cc1` [Bufexamac (8), bufexamac, reference compound], the IC50 (as a rule, the midpoint of a concentration-inhibition curve) at recombinant human HDAC1 is 31.7 ± 4.75 µM. Also, in series [1], the “acetylation levels of H3” value was “not affected” and the tubulin acetylation entry is “hyperacetylation of tubulin”. The GI50 – broadly, the concentration that inhibits growth by half – in the series on HL60 cells was found to be 31.8 ± 0.57 µM. The IC50 on recombinant human HDAC6 was found to be 2.24 ± 0.05 µM.
For `O=C(CCCCCCC(=O)Nc1ccccc1)NOC(=O)N1CCNCC1` [Compound 7, [(8-Anilino-8-oxo-octanoyl)amino]piperazin-4-ium-1-carboxylate trifluoroacetate], the IC50 on recombinant human HDAC1 was 5.1 µM and 5.09 µM; in series [2], 22.4 ± 0.28 µM; on recombinant human HDAC6, 3.7 µM and 3.71 µM. The “Release of SAHA (%)” value in series [3] worked out at 3.7%. In series [1], the “effect on H3 and tubulin acetylation levels” value is reported as “least effective substance”. In the series on HL60 cells, the GI50 was determined as 25.9 ± 1.96 µM.
As to `CCCCOc1ccc(CC(=O)NOC(=O)NC(C)C)cc1` [Compound 9], the inhibition at 300 µM on recombinant human HDAC1 (at 300 µM, read-out: Inhibition (%) @ Concentration (µM) HDAC1) was 49%. Besides, in series [1], the “acetylation levels of H3” value is given as “not affected” and the tubulin acetylation entry is “hyperacetylation of tubulin”. For the same molecule, the GI50 in the series on HL60 cells was 33.99 ± 0.06 µM. Also, the IC50 on recombinant human HDAC6 turned out to be 13.7 ± 0.16 µM.
Consider `O=C(CCCCCCC(=O)Nc1ccccc1)NO` [SAHA (1), N-hydroxy-N′-phenyloctanediamide, reference compound], for which the GI50 with HL60 cells was determined as 0.54 ± 0.03 µM; in the series with U937 cells, 0.43 ± 0.09 µM.

Values taken from paper PMC6017415, “Carbamates as Potential Prodrugs and a New Warhead for HDAC Inhibition” (Molecules : A Journal of Synthetic Chemistry and Natural …, 2018).
